Data on twelve substances can be found in patent US9617324B2, “Ameliorating agent for blood-brain barrier dysfunction” (Nagasaki University, priority 2012, dated 2017).

“Also recorded” adds a separate entry of the source. Like-named read-outs stand apart in the source and are kept apart here. No end group written: not given here.

One data set has as its system proMMP-9. Nature of the data set: Gelatin zymography of proMMP-9 activity after retinal ischemia. Particulars: 1 pmol. The format is in vivo, mouse. An excerpt:
It is known that a tight junction protein, occluding, is degraded by metalloproteinases (MMP) whose expression is increased by ischemia (J Cereb Blood Flow Metab, 2007. 27(4): p. 697-709). It is believed that MMP-9, in particular, plays a primary role in a failure of a blood-organ barrier by ischemia (J Cereb Blood Flow Metab, 2000. 20(12): p. 1681-9).
The expression level of MMP-9 is commonly low and the expression is derived by various stimuli by ischemia.

The subject of data set [1] is thrombotic cerebral infarction PIT model.
Data set [2] concerns tMCAO model (ischemia for 4 hours), tPA-induced cerebral hemorrhage.
Description: Mice were anesthetized with 3% isoflurane (Escain (registered trademark), Mylan Seiyaku Ltd., Tokyo, Japan) (Small animal anesthetizer MK-A100, Muromachi Kikai Co., Ltd., Tokyo, Japan). On a constant-temperature table at 37° C. (Ikemoto Scientific Technology Co., Ltd., Tokyo, Japan), the skin in the pharyngeal region is cut lengthwise into about 2 cm with scissors. The skin was drawn to the right using a hard silk thread (hard No. 8, Natsume Seisakusho Co., Ltd.) to secure a visual field. Using a stereoscopic microscope, the left common carotid artery which is located on the left side of the trachea is secured with a hard silk thread while exfoliating connective tissue, nerves and the like. By following the common carotid artery upward, the artery is separated into the internal carotid artery and the external carotid artery, and the external carotid artery on the left near side is tightly tied at two points with a soft silk thread and the space between the points is cut. A thin vessel extending upward from the internal carotid artery is secured with a soft silk thread. The soft silk thread and hard silk thread are strongly drawn to stop blood flow and an incision is made in the internal carotid artery with scissors. From that, an obturator is inserted 1 to 1.5 cm and the middle cerebral artery is occluded. The internal carotid artery was tied together with the obturator using a soft silk thread to fix the obturator. A soft silk thread is passed under the hard silk thread drawing and the common carotid artery is tied thereby on the near side of the hard silk thread, and the hard silk thread is then removed. The breath is sutured at two points with a soft silk thread. In the case of the model of transient middle cerebral artery occlusion (tMCAO) of the present problem, anesthesia was applied to the mice with 3% isoflurane again after an hour or 4 hours on a constant-temperature table at 37° C., and the soft silk thread suturing the breath is untied to open the breath. The soft silk thread tying the internal carotid artery was loosened and the obturator was withdrawn, and the internal carotid artery was immediately tied again.
Data set [3] has as its system tMCAO model (ischemia for 4 hours), tPA-induced motor dysfunction. Put plainly: tMCAO for four hours with tPA: clinical score and mortality after a day. The class given is in vivo, mouse. To be noted: for death of mice: 10 mg/kg peptide with tPA after 4 hours of tMCAO ischemia. The method, then: After tMCAO for four hours, the clinical score and mortality rate were evaluated after a day (FIG. 8). […] The tMCAO for four hours corresponds to the state after 3 hours from the onset of ischemic diseases.
(§1) To evaluate the degree of motor function disorders associated with cerebral ischemia, the neurological scores (Clinical Scores) according to the following definition were used. In addition, two grade evaluation was carried out using numerical values 1 to 4 (when scores 1 and 2 were shown, 1.5 was used).
(§2) 1: motor function disorders of the right front limb, 2: one-directional behavior, 3: unable to hold the position and incline, 4: disappearance of spontaneous movement, and 5: death.

For data set [4], the system named is thrombotic cerebral infarction PIT model. Put plainly: PIT model: damaged cerebral region by TTC staining. The class given is in vivo, mouse. Particulars: for damaged cerebral region by TTC staining: second Example 13.
The test system of data set [5] is model mice of cerebral ischemia (tMCAO). Put plainly: tMCAO (ischemia for an hour, reperfusion) model, clinical scores of motor dysfunction. The class given is in vivo, mouse. To be noted: for protective effect on motor dysfunction: i.v. after an hour after ischemia, 1 to 10 mg/kg. The method, then:
The model mice of cerebral ischemia produced by left middle cerebral artery occlusion in C57BL/J6 mice were maintained for an hour, followed by reperfusion. P30 (1 mg/kg or 3 mg/kg) or P6 (1 mg/kg) was administered into the caudal vein after an hour of reperfusion. Thereafter, the course of the mice was observed every 24 hours to evaluate motor function and existence. The clinical scores showing motor dysfunction are evaluated using the following five grades: 1: unable to completely extend the right front limb, 2: clockwise circling behavior, 3: unable to hold the position and incline to the right, 4: disappearance of spontaneous movement, and 5: death.
In FIG. 5, the data indicated by white squire indicate values when 0.1% DMSO in PBS (vehicle) was administered into the caudal vein in an amount of 100 μl/10 g after an hour of tMCAO for an hour. […] Black circle and black rhombus in the upper graph indicate the results of 1 mg/kg and 3 mg/kg P30 intravenous (i.v.) administration, respectively, and black circle in the lower graph indicates the results of 1 mg/kg P6 intravenous (i.v.) administration.
as §1, §2

[6] abbreviates: second Example 13, peptide in combination with tPA, peptide dose not given.
The mark [7] stands for this setting: peptide in combination with tPA, peptide dose not given.

For the substance “Ac-NEVDEE-NH2 [Peptide F, N-acetyl-P6-amide]”, the “increase in activity of proMMP-9 by ischemia” value in the data set with proMMP-9 is reported as “effect equal to that of P6”. The Clinical score in data set [1] (setting [6]) was found to be 1.2±0.2.
Consider NEVDEE [Peptide P6, NEVDEE], for which, in data set [2] (mouse, in vivo), the cerebral hemorrhage entry is “trend to exacerbate cerebral hemorrhage”.
As for NEVDEE-NH2 [Peptide E, NEVDEE-NH2], in data set [3], the death of mice result is on record as “all mice were died”.
Turning to NEVDQE [Peptide A, NEVDQE], the “hemorrhage in the cerebral cortex region” value worked out at 0.09±0.01 mm^2 in data set [2] (mouse, in vivo, iv, 1 mg/kg); 0.06±0.01 mm^2 in data set [2] (mouse, in vivo, iv, 3 mg/kg); 0.08±0.01 mm^2 in data set [2] (mouse, in vivo, iv, 10 mg/kg).
Take “Peptide L: P6 derivative peptide (NEIDEE)”: the “damaged cerebral region by TTC staining” value in data set [4] (setting [7]) is given as 46±5.6%. In addition, in data set [1] (setting [6]), the Clinical score is listed as 1.3±0.2.
In the same order, the values of “Peptide P: P6 derivative peptide (EEVNEE)” are 47±5.1% and 1.1±0.1.
In the same order, the values of “Peptide Q: P6 derivative peptide (EEVDQE)” are 55±1.4% and 1.7±0.5.
In the same order, the values of “Peptide R: P6 derivative peptide (EEVDQE)” are 54±4.5% and 1.1±0.1.
With “Peptide S: P6 derivative peptide (EEVDEE)”, the “damaged cerebral region by TTC staining” value in data set [4] (setting [7]) was determined as 51±5.7%. Besides, the Clinical score in data set [1] (setting [6]) turned out to be 1.1±0.2.
In the case of “pEEVDEE (not fully specified (residue 1); listed as Homo sapiens) [Peptide D]”, the “protective effect on motor dysfunction” value in data set [5] is “not as good as that of Peptide A and Peptide B”. Further, the death of mice entry in data set [3] is “all mice were died”. Moreover, the “damaged cerebral region by TTC staining” value in data set [4] (setting [7]) is listed as 52±7.2%. The Clinical score in data set [1] (setting [6]) came to 1±0.
For “pEEVNEE (not fully specified (residue 1); listed as Homo sapiens) [Peptide B]”, the “protective effect on motor dysfunction” value in data set [5] is “dose-dependently protective effect on motor dysfunction; also recorded: high protective activity”. The “dose showing the (greatest) protective effect on motor dysfunction” value in data set [5] (i.v., tMCAO 60 min ischemia) is given as 10 mg/kg. Moreover, in data set [3] (10 mg/kg peptide coadministered i.v. with tPA, 24 hours after ischemia), the “tPA-induced exacerbation of motor dysfunction” value is “tended to inhibit”. Besides, the “damaged cerebral region by TTC staining” value in data set [4] (setting [7]) is on record as 42±6.1%. In addition, in data set [2] (10 mg/kg peptide coadministered with tPA), the tPA-induced cerebral hemorrhage result was “did not have an influence”. The Clinical score in data set [1] (setting [6]) amounted to 1±0.
In the case of “tPA: thrombolytic agent, tissue plasminogen activator, purchased from Kyowa Hakko Kirin Co., Ltd. [reference compound]”, the “mortality rate after a day of ischemia” value in data set [3] (10 mg/kg tPA alone) was 35.7%. For the same substance, in data set [3] (10 mg/kg tPA alone, immediately before reperfusion), the “motor dysfunction (clinical score) after a day” value is reported as “deteriorated”. Besides, the “motor dysfunction score after a day” value in data set [3] (10 mg/kg tPA treatment, tMCAO ischemia for 4 hours, score 2 without tPA) was found to be 3.5. Also, in data set [4] (tPA alone after 6 hours of PIT treatment), the “damaged cerebral region by TTC staining” value worked out at 44±2.6%. Also, the “protective effect (infarct region)” value is “the protective effect was not confirmed” in data set [4] (tPA administered after 6 hours of ischemia) and “protective effect was reduced” in data set [4] (tPA treatment time delayed (2 to 4 hours)). Also, in data set [4] (tPA treatment after an hour after thrombus formation), the infarct region result is recorded as “significant decrease in the infarct region”. The same substance gave a hemorrhagic region in data set [2] (mouse, in vivo, iv, 10 mg/kg) of 0.7±0.2 mm^2. Besides, the Clinical score in data set [1] (Example 12, tPA-alone after 6 hours of PIT treatment) amounted to 1.5±0.2; in data set [1] (second Example 13, tPA alone after 6 hours of PIT treatment), 1.4±0.1.
